Values quoted from earlier work in patent publication US20060280700A1, “Oral hygiene system to fight the effects of aging on the mouth, gums, and teeth” (priority 2005, published 2006).

Experiments:
[1] = test system: oral squamous carcinoma cells; conditions: for inhibition in growth of oral squamous carcinoma cells: in culture
Streptococcus mutants = conditions: rodent model inoculated with Streptococcus mutants

Compound | inhibition of the activity of Pophyromonas proteinases (Pophyromonas proteinases) | inhibition of DNA synthesis [1] | inhibition in growth of oral squamous carcinoma cells [1] | cariogenic action (Streptococcus mutants)
O=C(O[C@@H]1Cc2c(O)cc(O)cc2O[C@H]1c1ccc(O)c(O)c1)c1cc(O)c(O)c(O)c1 [(−)-catechin gallate] | significantly inhibited |  |  | 
Oc1cc(O)c2c(c1)O[C@H](c1cc(O)c(O)c(O)c1)[C@H](O)C2 [EGC, (−) epigauocatechin] |  | dose-dependent inhibition | significant dose dependent inhibition | 
O=C(O[C@@H]1Cc2c(O)cc(O)cc2O[C@@H]1c1cc(O)c(O)c(O)c1)c1cc(O)c(O)c(O)c1 [EGCG, (−)-epigallocatechin-3-gallate] | significantly inhibited | dose-dependent inhibition | significant dose dependent inhibition | 
OC[C@@H](O)[C@H](O)[C@@H](O)CO [Xylitol] |  |  |  | little or no cariogenic action
(−)-epicatechin-3-gallate [ECG] | significantly inhibited | dose-dependent inhibition | significant dose dependent inhibition | 
(−)-gallocatechin gallate | significantly inhibited |  |  | 
